In patent publication US6908935B2, “Calcium receptor modulating agents” (Amgen Inc., priority 2002, dated 2005) one finds EC50 data, which are given here for 30 compounds.

pEC50: −log10 of the molar value. Some results are limits rather than exact numbers.

This test addresses T1, human parathyroid cell Ca^2+ receptor (hPCaR) (Homo sapiens, UniProt P41180).
T1 construct: expressed in transfected cells
T1 sequence (P41180 20-1078): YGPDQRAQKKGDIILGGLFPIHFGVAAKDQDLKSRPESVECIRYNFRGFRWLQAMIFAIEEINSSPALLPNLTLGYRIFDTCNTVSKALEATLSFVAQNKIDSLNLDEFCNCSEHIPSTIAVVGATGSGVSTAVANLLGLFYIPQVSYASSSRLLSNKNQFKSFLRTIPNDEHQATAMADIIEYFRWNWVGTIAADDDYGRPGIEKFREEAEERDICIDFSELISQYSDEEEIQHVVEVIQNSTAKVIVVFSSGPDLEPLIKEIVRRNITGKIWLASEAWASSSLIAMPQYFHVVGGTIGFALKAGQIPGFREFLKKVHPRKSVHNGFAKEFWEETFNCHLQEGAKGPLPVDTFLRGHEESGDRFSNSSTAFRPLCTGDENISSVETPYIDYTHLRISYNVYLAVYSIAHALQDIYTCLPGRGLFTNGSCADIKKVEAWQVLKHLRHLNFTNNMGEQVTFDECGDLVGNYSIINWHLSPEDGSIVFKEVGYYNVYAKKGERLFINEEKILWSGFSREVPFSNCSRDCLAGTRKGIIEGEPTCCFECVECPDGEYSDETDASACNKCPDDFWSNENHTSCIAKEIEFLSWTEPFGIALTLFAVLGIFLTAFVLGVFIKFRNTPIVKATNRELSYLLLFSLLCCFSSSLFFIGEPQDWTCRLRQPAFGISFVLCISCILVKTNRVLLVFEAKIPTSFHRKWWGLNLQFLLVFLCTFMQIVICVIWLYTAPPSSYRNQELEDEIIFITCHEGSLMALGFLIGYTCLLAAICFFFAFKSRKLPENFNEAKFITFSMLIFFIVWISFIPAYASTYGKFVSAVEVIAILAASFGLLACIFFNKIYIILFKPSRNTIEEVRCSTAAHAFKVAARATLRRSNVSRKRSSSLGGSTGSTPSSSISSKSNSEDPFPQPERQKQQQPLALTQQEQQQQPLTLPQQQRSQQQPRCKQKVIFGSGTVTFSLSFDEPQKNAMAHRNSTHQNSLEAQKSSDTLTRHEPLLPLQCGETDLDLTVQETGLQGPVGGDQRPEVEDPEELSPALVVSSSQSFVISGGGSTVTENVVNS
The test is described as follows: [Ca2+]i measurement with fluo-3 in HEK 293 4.0-7 cells stably transfected with hPCaR. The following applies: fluo-3 fluorescence (485/530 nm), effect on [Ca^2+]i. The test is classed as cell-based. How it is done:
The activities of the compounds of the present invention on calcium receptors were measured. In one embodiment, the measurement was performed in accordance with the method described in Example 4 of Nemeth et al., PCT/US95/13704 (International Publication No. WO96/12697) herein incorporated by reference.
A 4.0-kb NotI-HindIII fragment of the human parathyroid cell Ca^2+ receptor (hPCaR) cDNA was subcloned into the mammalian expression vector pCEP4 (Invitrogen) containing the hygromycin-resistant gene as a selectable marker. This plasmid was transfected into HEK 293 cells by calcium phosphate precipitation. Transfected cells were grown in Dulbecco's modified Eagle's medium containing 10% fetal bovine serum and hygromycin (200 μg/mL). Hygromycin-resistant colonies were subcloned and assayed for hPCaR mRNA by solution hybridization using a ^32P-labeled RNA probe complementary to the (4.0 kb) hPCaR sequence (Garrett, et al., J. Biol. Chem. 270, 12919-12925 (1995)). Clone 7 was used to assess the effects of compounds on [Ca^2+]i. This stably transfected cell line is termed HEK 293 4.0-7. For measurements of [Ca^2+]i, the cells were recovered from tissue culture flasks by brief treatment with 0.02% EDTA and then washed and resuspended in PCB containing 1 mM CaCl2 and 0.1% Bovine Serum Albumin (“BSA”). The cells were loaded with fluo-3 by incubation for 30 min at 37° C., with parathyroid cell buffer (126 mM NaCl, 4 mM KCl, 1 mM MgSO4, 0.7 mM K2HPO/KH2PO4, 20 mM HEPES.NaOH (pH 7.45)) containing 0.5% BSA in lmM CaCl2 and 2 μM fluo-3 acetoxymethyl ester. The cells were subsequently washed, each test compound was added to the cells and the fluorescence was recorded by using excitation and emission wavelengths of 485 and 530 nm, respectively.
Broadly, the pEC50 is the negative decadic logarithm of the EC50, by convention in mol/L. Read a high pEC50 as a small EC50. For the compound `COc1ccc(CNC(C)c2cccc(N(C)C)c2)cc1-c1ccc(C(F)(F)F)cc1` (stereo not drawn), the pEC50 was at least 5.00. With `COc1cccc([C@@H](C)NCc2ccc(OC)c(-c3csc(N4CCCCC4)n3)c2)c1` the figure was at least 5.00; with `COc1cccc([C@@H](C)NCc2ccc(OC)c(-c3ccc4oc(C)nc4c3)c2)c1`, at least 5.00; with `COc1ccc(CN[C@H](C)c2cccc3ccccc23)cc1-c1ccc(C(F)(F)F)nc1`, at least 5.00. `COc1ccc(CN[C@H](C)c2cccc(C#N)c2)cc1-c1ccc(C(F)(F)F)cc1` (stereo in doubt) [3-(1-(((6-(methyloxy)-4′-(trifluoromethyl)-1,1′-biphenyl-3-yl)methyl)amino)ethyl)benzonitrile] gave a pEC50 of at least 5.00. On to `COc1ccc(CNC(C)c2cccc(Cl)c2Cl)cc1-c1ccc(C(F)(F)F)cc1` (stereo not drawn) [1-(2,3-dichlorophenyl)-N-((6-(methyloxy)-4′-(trifluoromethyl)-1,1′-biphenyl-3-yl)methyl)ethanamine], for which the negative logarithm of the EC50 (pEC50) was at least 5.00. As for `COCCn1cc(-c2cc(CN[C@H](C)c3cccc4ccccc34)ccc2OC)ccc1=O` [1-(2-(methyloxy)ethyl)-5-(2-(methyloxy)-5-((((1R)-1-(1-naphthalenyl)ethyl)amino)methyl)phenyl)-2(1H)-pyridinone], the negative logarithm of the EC50 (pEC50) was at least 5.00. Turning to `COCCn1cc(-c2cc(CN[C@H](C)c3cccc(OC)c3)ccc2OC)ccc1=O` [1-(2-(methyloxy)ethyl)-5-(2-(methyloxy)-5-((((1R)-1-(3-(methyloxy)phenyl)ethyl)amino)methyl)phenyl)-2-(1H)-pyridinone], the pEC50 is at least 5.00. Take `COc1ccc(CNC(C)c2cc(F)cc(F)c2)cc1-c1ccc(C(F)(F)F)cc1` (stereo not drawn) [1-(3,5-difluorophenyl)-N-((6-(methyloxy)-4′-(trifluoromethyl)-1,1′-biphenyl-3-yl)methyl)ethanamine]: the negative logarithm of the EC50 (pEC50) was at least 5.00.

`COc1ccc(CNC(C)c2cccc(Br)c2)cc1-c1ccc(C(F)(F)F)cc1` (stereo not drawn) [1-(3-bromophenyl)-N-((6-(methyloxy)-4′-(trifluoromethyl)-1,1′-biphenyl-3-yl)methyl)ethanamine] showed a pEC50 of at least 5.00. Compound `COc1ccc(CNC(C)c2cccc(F)c2)cc1-c1ccc(C(F)(F)F)cc1` (stereo not drawn) [1-(3-fluorophenyl)-N-((6-(methyloxy)-4′-(trifluoromethyl)-1,1′-biphenyl-3-yl)methyl)ethanamine] showed a negative-log EC50 (pEC50) of at least 5.00. As for `COc1ccc(CNC(C)c2ccc(F)cc2)cc1-c1ccc(C(F)(F)F)cc1` (stereo not drawn) [1-(4-fluorophenyl)-N-((6-(methyloxy)-4′-(trifluoromethyl)-1,1′-biphenyl-3-yl)methyl)ethanamine], the figure is at least 5.00; as for `COc1ccc(CN[C@H](C)c2cccc3ccccc23)cc1-c1ccc(=O)n(C)c1` [1-methyl-5-(2-(methyloxy)-5-((((1R)-1-(1-naphthalenyl)ethyl)amino)methyl)phenyl)-2-(1H)-pyridinone], at least 5.00. As for `COc1cccc([C@@H](C)NCc2ccc(OC)c(-c3ccc(=O)n(C)c3)c2)c1` [1-methyl-5-(2-(methyloxy)-5-((((1R)-1-(3-(methyloxy)phenyl)ethyl)amino)methyl)phenyl)-2(1H)-pyridinone], the figure is at least 5.00; as for `COc1ccc(CN[C@H](C)c2ccccc2)cc1-c1ccc(=O)n(C)c1` [1-methyl-5-(2-(methyloxy)-5-((((1R)-1-phenylethyl)amino)methyl)phenyl)-2(1H)-pyridinone], at least 5.00. `COc1ccc(CN[C@H](C)c2cccc3ccccc23)cc1-c1ccc2c(ccn2CC(N)=O)c1` [2-(5-(2-(methyloxy)-5-((((1R)-1-(1-naphthalenyl)ethyl)amino)methyl)phenyl)-1H-indol-1-yl)acetamide]: the pEC50 was at least 5.00. With `COc1cccc([C@@H](C)NCc2ccc(OC)c(-c3ccc4c(ccn4CC(N)=O)c3)c2)c1` [2-(5-(2-(methyloxy)-5-((((1R)-1-(3-(methyloxy)phenyl)ethyl)amino)methyl)phenyl)-1H-indol-1-yl)acetamide] the figure was at least 5.00; with `COc1ccc(CN[C@H](C)c2ccccc2)cc1-c1ccc2c(ccn2CC(N)=O)c1` [2-(5-(2-(methyloxy)-5-((((1R)-1-phenylethyl)amino)methyl)phenyl)-1H-indol-1-yl)acetamide], at least 5.00; with `COc1ccc(CN[C@H](C)c2cccc3ccccc23)cc1-c1cccc(C#N)c1` [2′-(methyloxy)-5′-((((1R)-1-(1-naphthalenyl)ethyl)amino)methyl)-1,1′-biphenyl-3-carbonitrile], at least 5.00. Consider `COc1ccc(CN[C@H](C)c2cccc3ccccc23)cc1-c1cccc(C(N)=O)c1` [2′-(methyloxy)-5′-((((1R)-1-(1-naphthalenyl)ethyl)amino)methyl)-1,1′-biphenyl-3-carboxamide], for which the pEC50 is at least 5.00. Take `COc1ccc(CN[C@H](C)c2cccc3ccccc23)cc1-c1cccc(C(=O)O)c1` [2′-(methyloxy)-5′-((((1R)-1-(1-naphthalenyl)ethyl)amino)methyl)-1,1′-biphenyl-3-carboxylic acid]: the pEC50 was at least 5.00. As for `COc1ccc(CN[C@H](C)c2cccc3ccccc23)cc1-c1ccc(C(N)=O)cc1` [2′-(methyloxy)-5′-((((1R)-1-(1-naphthalenyl)ethyl)amino)methyl)-1,1′-biphenyl-4-carboxamide], the figure is at least 5.00; as for `COc1cccc([C@@H](C)NCc2ccc(OC)c(-c3cccc(C#N)c3)c2)c1` [2′-(methyloxy)-5′-((((1R)-1-(3-(methyloxy)phenyl)ethyl)amino)methyl)-1,1′-biphenyl-3-carbonitrile], at least 5.00. In the case of `COc1cccc([C@@H](C)NCc2ccc(OC)c(-c3cccc(C(N)=O)c3)c2)c1` [2′-(methyloxy)-5′-((((1R)-1-(3-(methyloxy)phenyl)ethyl)amino)methyl)-1,1′-biphenyl-3-carboxamide], the negative logarithm of the EC50 (pEC50) is at least 5.00. The compound `COc1cccc([C@@H](C)NCc2ccc(OC)c(-c3cccc(C(=O)O)c3)c2)c1` [2′-(methyloxy)-5′-((((1R)-1-(3-(methyloxy)phenyl)ethyl)amino)methyl)-1,1′-biphenyl-3-carboxylic acid] had a pEC50 of at least 5.00.

Compound `COc1cccc([C@@H](C)NCc2ccc(OC)c(-c3ccc(C(N)=O)cc3)c2)c1` [2′-(methyloxy)-5′-((((1R)-1-(3-(methyloxy)phenyl)ethyl)amino)methyl)-1,1′-biphenyl-4-carboxamide] showed a pEC50 of at least 5.00. In the case of `COc1ccc([C@@H](C)NCc2ccc(OC)c(-c3cccc(C#N)c3)c2)cc1` [2′-(methyloxy)-5′-((((1R)-1-(4-(methyloxy)phenyl)ethyl)amino)methyl)-1,1′-biphenyl-3-carbonitrile], the pEC50 is at least 5.00. On to `COc1ccc(CN[C@H](C)c2ccc(C)cc2)cc1-c1cccc(C#N)c1` [2′-(methyloxy)-5′-((((1R)-1-(4-methylphenyl)ethyl)amino)methyl)-1,1′-biphenyl-3-carbonitrile], for which the pEC50 was at least 5.00. The compound `COc1ccc(CN[C@H](C)c2ccccc2)cc1-c1cccc(C#N)c1` [2′-(methyloxy)-5′-((((1R)-1-phenylethyl)amino)methyl)-1,1′-biphenyl-3-carbonitrile] gave a negative logarithm of the EC50 (pEC50) of at least 5.00. In turn, `COc1ccc(CN[C@H](C)c2ccccc2)cc1-c1cccc(C(N)=O)c1` [2′-(methyloxy)-5′-((((1R)-1-phenylethyl)amino)methyl)-1,1′-biphenyl-3-carboxamide] showed a negative logarithm of the EC50 (pEC50) of at least 5.00.
